Test results published in patent publication US4474967A, “8-Deutero and 8-tritio-substituted derivatives of D-4S-6-fluoro-spiro-[chroman-4,4'-imidazolidine]-2',5'-dione” (Pfizer Inc., priority 1983, dated 1984).

Tested on: aldose reductase
Test: Inhibition of aldose reductase enzyme activity (S. Hayman et al., as modified by K. Sestanj et al.)
Type: biochemical
Details: partially purified aldose reductase enzyme from calf lens
Method: The following asymmetric spiro-hydantoin compounds of Examples 1 and 2, respectively, were tested at a concentration level of 10^-6 M for their ability to reduce or inhibit aldose reductase enzyme activity via the procedure of S. Hayman et al., as described in the Journal of Biological Chemistry, Vol. 240, p. 877(1965) and as modified by K. Sestanj et al. in U.S. Pat. No. 3,821,383. In each case, the substrate employed was partially purified aldose reductase enzyme obtained from calf lens.

Row | Structure (SMILES) | % Inhibition at 10^-6 M [%]
1 | O=C1NC(=O)[C@@]2(CCOc3c(F)cc(F)cc32)N1 [Product of Example 1, 4S-6,8-difluoro-spiro-[chroman-4,4'-imidazolidine]-2',5'-dione] | 74
2 | O=C1NC(=O)[C@@]2(CCOc3c(Cl)cc(F)cc32)N1 [Product of Example 2, 4S-6-fluoro-8-chloro-spiro-[chroman-4,4'-imidazolidine]-2',5'-dione] | 64
